Key:
Helios = Helios (Homo sapiens, UniProt Q96SW2+Q9UKS7); assay: Helios Cellular Degradation Assay (Helios readout); type: cell-based; set-up: endogenous in cells; host or cells: Jurkat; conditions: Jurkat cells, 72 h incubation, Helios-PE antibody staining, flow cytometry; read-out: Helios Jurkat IC50
Protocol: (§1) Jurkat cells were plated at 80,000 cells/well in 40 μL RPMI+10% FBS in a 384 well cell culture plate prior to using acoustic dispensing technology for adding compound of interest. Cell cultures were incubated for 72 h at 37° C. and 5% C02. In order to facilitate analysis, cell cultures were spun down at 200 rpm for 5 min and the supernatant was discarded. After shaking the plate to dislodge the cell pellet, cells were resuspended in 50 μL of Fixation Buffer (eBioScience FoxP3 buffer set 00-5523-00) for 60 min at room temperature. After centrifuging and discarding the supernatant, cells were permeabilized with 50 μL of Permeabilization buffer (eBioScience FoxP3 buffer set 00-5523-00) for 10 min at room temperature. Following permeabilization, cells were spun down and the supernatant was replaced with 20 μL fluorescently labelled antibodies against Helios, Ikaros and Aiolos or corresponding Isotype controls in 1× Permeabilization buffer (Ikaros-Alexa488 [Biolegend, Cat #368408, 1:50], Helios-PE [CST, Cat #29360, 1:50], Aiolos-Alexa647 [Biolegend, Cat #371106Biolegend, 1:25]) and staining reactions were incubated for 1 h at room temperature; protected from light. Subsequently, 30 μL of 1× Permeabilization buffer was added prior to centrifuging the cells and discarding the supernatant. Stained cells were resuspended in 25 μL of flow cytometry staining buffer (PBS+0.2% BSA) and analyzed using an Intellicyt Ique Plus flow cytometer.

Ikaros = Ikaros (Homo sapiens, UniProt Q13422+Q96SW2); assay: Helios Cellular Degradation Assay (Ikaros readout); type: cell-based; set-up: endogenous in cells; host or cells: Jurkat; conditions: Jurkat cells, 72 h incubation, Ikaros-Alexa488 antibody staining, flow cytometry; read-out: Ikaros Jurkat IC50
Protocol: as §1

Helios, sequence (Q9UKS7 whole entry): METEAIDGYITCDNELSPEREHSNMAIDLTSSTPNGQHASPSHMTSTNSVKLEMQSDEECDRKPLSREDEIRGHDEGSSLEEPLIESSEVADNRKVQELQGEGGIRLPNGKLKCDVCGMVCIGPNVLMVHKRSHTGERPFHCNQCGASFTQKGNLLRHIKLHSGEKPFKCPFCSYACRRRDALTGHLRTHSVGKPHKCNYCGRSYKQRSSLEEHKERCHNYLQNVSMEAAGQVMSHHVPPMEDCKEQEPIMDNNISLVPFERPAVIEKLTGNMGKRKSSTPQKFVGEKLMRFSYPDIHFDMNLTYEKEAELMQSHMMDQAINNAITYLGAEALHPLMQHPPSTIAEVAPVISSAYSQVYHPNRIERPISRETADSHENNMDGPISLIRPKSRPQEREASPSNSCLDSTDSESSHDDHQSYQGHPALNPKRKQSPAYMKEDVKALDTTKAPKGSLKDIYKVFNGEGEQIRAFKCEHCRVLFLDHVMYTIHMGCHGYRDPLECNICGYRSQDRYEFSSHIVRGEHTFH
Helios, sequence (Q96SW2 whole entry): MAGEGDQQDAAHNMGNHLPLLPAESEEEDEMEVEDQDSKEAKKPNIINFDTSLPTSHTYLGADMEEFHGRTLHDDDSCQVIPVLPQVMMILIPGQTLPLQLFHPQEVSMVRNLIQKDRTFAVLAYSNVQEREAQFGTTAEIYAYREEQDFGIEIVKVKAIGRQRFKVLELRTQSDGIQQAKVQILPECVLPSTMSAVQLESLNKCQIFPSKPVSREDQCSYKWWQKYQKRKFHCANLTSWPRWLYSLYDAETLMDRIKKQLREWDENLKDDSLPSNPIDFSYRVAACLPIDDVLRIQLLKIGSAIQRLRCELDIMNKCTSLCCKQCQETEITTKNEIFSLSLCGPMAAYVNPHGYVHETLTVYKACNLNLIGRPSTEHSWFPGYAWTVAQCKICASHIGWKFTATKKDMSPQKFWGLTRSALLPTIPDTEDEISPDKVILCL
Helios, sequence (Q16531 whole entry partner): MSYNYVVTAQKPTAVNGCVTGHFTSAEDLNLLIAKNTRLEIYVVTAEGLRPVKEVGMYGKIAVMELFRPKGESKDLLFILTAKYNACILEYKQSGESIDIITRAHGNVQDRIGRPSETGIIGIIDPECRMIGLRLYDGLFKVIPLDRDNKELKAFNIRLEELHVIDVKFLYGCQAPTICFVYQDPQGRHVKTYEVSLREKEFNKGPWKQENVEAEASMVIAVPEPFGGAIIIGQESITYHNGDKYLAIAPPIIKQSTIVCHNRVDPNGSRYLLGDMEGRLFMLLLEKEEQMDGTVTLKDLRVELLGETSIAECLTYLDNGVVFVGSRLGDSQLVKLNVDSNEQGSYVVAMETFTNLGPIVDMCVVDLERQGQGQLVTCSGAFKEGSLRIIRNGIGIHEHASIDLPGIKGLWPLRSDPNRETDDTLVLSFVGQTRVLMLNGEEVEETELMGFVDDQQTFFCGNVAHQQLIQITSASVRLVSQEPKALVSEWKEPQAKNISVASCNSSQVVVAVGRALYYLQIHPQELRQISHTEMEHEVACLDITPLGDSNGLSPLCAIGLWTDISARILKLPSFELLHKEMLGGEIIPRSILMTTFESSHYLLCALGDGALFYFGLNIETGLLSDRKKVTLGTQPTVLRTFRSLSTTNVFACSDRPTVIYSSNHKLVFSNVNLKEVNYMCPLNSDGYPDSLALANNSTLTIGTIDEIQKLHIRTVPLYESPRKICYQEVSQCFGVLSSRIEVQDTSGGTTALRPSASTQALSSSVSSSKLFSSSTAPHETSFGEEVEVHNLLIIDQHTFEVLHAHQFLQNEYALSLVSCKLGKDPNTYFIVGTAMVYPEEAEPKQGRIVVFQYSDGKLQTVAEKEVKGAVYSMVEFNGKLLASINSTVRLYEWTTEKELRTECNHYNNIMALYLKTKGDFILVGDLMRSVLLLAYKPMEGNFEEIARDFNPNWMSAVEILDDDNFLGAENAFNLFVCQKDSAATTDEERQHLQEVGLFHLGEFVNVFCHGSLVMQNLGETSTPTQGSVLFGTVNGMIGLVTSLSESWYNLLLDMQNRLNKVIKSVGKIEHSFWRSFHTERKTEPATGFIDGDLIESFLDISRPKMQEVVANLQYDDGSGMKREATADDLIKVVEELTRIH
Ikaros, sequence (Q13422 whole entry): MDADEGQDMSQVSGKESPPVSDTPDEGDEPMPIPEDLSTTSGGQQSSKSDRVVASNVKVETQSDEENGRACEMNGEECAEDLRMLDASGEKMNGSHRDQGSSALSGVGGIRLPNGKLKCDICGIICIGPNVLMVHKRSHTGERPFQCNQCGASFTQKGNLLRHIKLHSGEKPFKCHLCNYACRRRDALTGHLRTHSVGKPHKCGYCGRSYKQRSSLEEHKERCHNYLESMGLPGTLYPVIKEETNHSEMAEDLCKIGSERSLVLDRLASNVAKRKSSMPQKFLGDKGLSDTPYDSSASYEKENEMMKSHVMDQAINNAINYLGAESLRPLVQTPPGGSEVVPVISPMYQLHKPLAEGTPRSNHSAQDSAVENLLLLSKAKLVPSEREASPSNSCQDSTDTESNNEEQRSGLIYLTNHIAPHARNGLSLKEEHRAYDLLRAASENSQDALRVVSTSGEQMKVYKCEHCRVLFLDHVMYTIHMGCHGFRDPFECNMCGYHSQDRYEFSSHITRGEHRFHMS
Ikaros, sequence (Q96SW2 whole entry): as the sequence (Q96SW2 whole entry) above
Ikaros, sequence (Q16531 whole entry partner): as the sequence (Q16531 whole entry partner) above

| DC50 (Helios) [µM] | DC50 (Ikaros) [µM] | SMILES |
| --- | --- | --- |
| 0.86 | ≥ 20 | CC(C)c1nc2ccccc2nc1-c1ccc2c(c1)CN(C1CCC(=O)NC1=O)C2=O (stereo not shown) [Example 98, 3-(5-(3-isopropylquinoxalin-2-yl)-1-oxoisoindolin-2-yl)piperidine-2,6-dione] |
| 0.04 | ≥ 20 | N#Cc1nc(-c2ccc3c(c2)CN([C@H]2CCC(=O)NC2=O)C3=O)cc2ccccc12 [Example 125, 3-{2-[(3 S)-2,6-dioxopiperidin-3-yl]-1-oxo-2,3-dihydro-1H-isoindol-5-yl}isoquinoline-1-carbonitrile] |
| 0.04 | ≥ 20 | COc1cc(N)nc(-c2ccc3c(c2)CN(C2CCC(=O)NC2=O)C3=O)c1 (stereo not shown) [Example 164, 3-(5-(6-amino-4-methoxypyridin-2-yl)-1-oxoisoindolin-2-yl)piperidine-2,6-dione] |
| 0.2 | ≥ 20 | O=C1CCC(N2Cc3cc(-c4nc5ccccc5nc4O)ccc3C2=O)C(=O)N1 (stereo not shown) [Example 96, 3-(5-(3-hydroxyquinoxalin-2-yl)-1-oxoisoindolin-2-yl)piperidine-2,6-dione] |
| 0.48 | > 20 | Cc1cc2ccccc2nc1-c1ccc2c(c1)CN(C1CCC(=O)NC1=O)C2=O (stereo not shown) [Example 32, 3-[5-(3-methylquinolin-2-yl)-1-oxo-2,3-dihydro-1H-isoindol-2-yl]piperidine-2,6-dione] |
| 0.042 | 3 | O=C1CCC(N2Cc3cc(-c4cc5ccccc5cn4)ccc3C2=O)C(=O)N1 (stereo not shown) [Example 67, 3-[5-(isoquinolin-3-yl)-1-oxo-2,3-dihydro-1H-isoindol-2-yl]piperidine-2,6-dione] |
| > 20 | > 20 | Cc1cc(=O)c2ccc(-c3ccc4c(c3)CN(C3CCC(=O)NC3=O)C4=O)nc2o1 (stereo not shown) [Example 62, 3-(5-{2-methyl-4-oxo-4H-pyrano[2,3-b]pyridin-7-yl}-1-oxo-2,3-dihydro-1H-isoindol-2-yl)piperidine-2,6-dione] |
| 0.76 | ≥ 10 | Cc1cc(-c2ccc3c(c2)CN(C2CCC(=O)NC2=O)C3=O)ncc1C#N (stereo not shown) [Example 152, 6-(2-(2,6-dioxopiperidin-3-yl)-1-oxoisoindolin-5-yl)-4-methylnicotinonitrile] |
| 0.08 | ≥ 20 | O=C1CCC(N2Cc3cc(-c4ccc5c(n4)NCCO5)ccc3C2=O)C(=O)N1 (stereo not shown) [Example 141, 3-(5-(3,4-dihydro-2H-pyrido[3,2-b][1,4]oxazin-6-yl)-1-oxoisoindolin-2-yl)piperidine-2,6-dione] |
| 0.027 | > 20 | O=C1CCC(N2Cc3cc(-c4ncc5ccccc5n4)ccc3C2=O)C(=O)N1 (stereo not shown) [Example 9, 3-[1-oxo-5-(quinazolin-2-yl)-2,3-dihydro-1H-isoindol-2-yl]piperidine-2,6-dione] |
| 0.025 | > 20 | COc1ccc2nc(-c3ccc4c(c3)CN(C3CCC(=O)NC3=O)C4=O)ccc2c1 (stereo not shown) [Example 29, 3-[5-(6-methoxyquinolin-2-yl)-1-oxo-2,3-dihydro-1H-isoindol-2-yl]piperidine-2,6-dione] |
| 0.1 | ≥ 20 | CC(=O)Nc1ccc2c(-c3ccc4c(c3)CN(C3CCC(=O)NC3=O)C4=O)nccc2c1 (stereo not shown) [Example 134, N-{1-[2-(2,6-dioxopiperidin-3-yl)-1-oxo-2,3-dihydro-1H-isoindol-5-yl]isoquinolin-6-yl}acetamide] |
| 0.02 | 0.09 | O=C1CCC(N2Cc3cc(-c4nccc5c4ccn5Cc4ccccc4)ccc3C2=O)C(=O)N1 (stereo not shown) [Example 161, 3-(5-(1-benzyl-1H-pyrrolo[3,2-c]pyridin-4-yl)-1-oxoisoindolin-2-yl)piperidine-2,6-dione] |
| 0.026 | > 20 | CNc1nc(-c2ccc3c(c2)CN(C2CCC(=O)NC2=O)C3=O)cc2ncccc12 (stereo not shown) [Example 51, 3-{5-[5-(Methylamino)-1,6-naphthyridin-7-yl]-1-oxo-2,3-dihydro-1H-isoindol-2-yl}piperidine-2,6-dione] |
| 0.02 | ≥ 20 | N#Cc1ccc(-c2ccc3c(c2)CN(C2CCC(=O)NC2=O)C3=O)nc1N (stereo not shown) [Example 166, 2-amino-6-(2-(2,6-dioxopiperidin-3-yl)-1-oxoisoindolin-5-yl)nicotinonitrile] |
| 0.014 | 0.096 | COc1ccc2c(-c3ccc4c(c3)CN(C3CCC(=O)NC3=O)C4=O)nccc2c1 (stereo not shown) [Example 17, 3-[5-(6-methoxyisoquinolin-1-yl)-1-oxo-2,3-dihydro-1H-isoindol-2-yl]piperidine-2,6-dione] |

| DC50 (Helios) [µM] | DC50 (Ikaros) [µM] | SMILES |
| --- | --- | --- |
| 0.02 | 0.034 | O=C1CCC(N2Cc3cc(-c4nccc5c(F)cccc45)ccc3C2=O)C(=O)N1 (stereo not shown) [Example 20, 3-[5-(5-fluoroisoquinolin-1-yl)-1-oxo-2,3-dihydro-1H-isoindol-2-yl]piperidine-2,6-dione] |
| 0.01 | ≥ 10 | Cc1cc(-c2ccc3c(c2)CN(C2CCC(=O)NC2=O)C3=O)nc(N)c1C (stereo not shown) [Example 151, 3-(5-(6-amino-4,5-dimethylpyridin-2-yl)-1-oxoisoindolin-2-yl)piperidine-2,6-dione] |
| 0.01 | ≥ 10 | Cc1cc(-c2ccc3c(c2)CN(C2CCC(=O)NC2=O)C3=O)nc(N)c1C#N (stereo not shown) [Example 148, 2-amino-6-(2-(2,6-dioxopiperidin-3-yl)-1-oxoisoindolin-5-yl)-4-methylnicotinonitrile] |
| 0.1 | ≥ 20 | O=C1CCC(N2Cc3cc(-c4cc5c(cn4)OCCN5)ccc3C2=O)C(=O)N1 (stereo not shown) [Example 87, 3-(5-(2,3-dihydro-1H-pyrido[3,4-b][1,4]oxazin-7-yl)-1-oxoisoindolin-2-yl)piperidine-2,6-dione] |
| 0.067 | 0.45 | Nc1nc(-c2ccccc2)nc(-c2ccc3c(c2)CN(C2CCC(=O)NC2=O)C3=O)n1 (stereo not shown) [Example 73, 3-(5-(4-amino-6-phenyl-1,3,5-triazin-2-yl)-1-oxoisoindolin-2-yl)piperidine-2,6-dione] |
| 0.11 | ≥ 20 | O=C1CCC(N2Cc3cc(-c4cc5ccccc5c(=O)[nH]4)ccc3C2=O)C(=O)N1 (stereo not shown) [Example 157, 3-[1-Oxo-5-(1-oxo-1,2-dihydroisoquinolin-3-yl)-2,3-dihydro-1H-isoindol-2-yl]piperidine-2,6-dione] |
| 0.032 | 0.034 | O=C1CCC(N2Cc3cc(-c4cc(-c5ccccc5)ccn4)ccc3C2=O)C(=O)N1 (stereo not shown) [Example 74, 3-(1-oxo-5-(4-phenylpyridin-2-yl)isoindolin-2-yl)piperidine-2,6-dione] |
| 1.07 | ≥ 20 | COc1nc2ccccc2nc1-c1ccc2c(c1)CN(C1CCC(=O)NC1=O)C2=O (stereo not shown) [Example 94, 3-(5-(3-methoxyquinoxalin-2-yl)-1-oxoisoindolin-2-yl)piperidine-2,6-dione] |
| 0.14 | ≥ 20 | O=C1CCC(N2Cc3cc(-c4ncc(OCc5ccccc5)c5ccccc45)ccc3C2=O)C(=O)N1 (stereo not shown) [Example 105, 3-(5-(4-(benzyloxy)isoquinolin-1-yl)-1-oxoisoindolin-2-yl)piperidine-2,6-dione] |
| 0.13 | ≥ 20 | COc1cccnc1-c1ccc2c(c1)CN(C1CCC(=O)NC1=O)C2=O (stereo not shown) [Example 104, 3-(5-(3-methoxypyridin-2-yl)-1-oxoisoindolin-2-yl)piperidine-2,6-dione] |
| 0.037 | > 20 | CN(C)c1nc(-c2ccc3c(c2)CN(C2CCC(=O)NC2=O)C3=O)cc2ccccc12 (stereo not shown) [Example 49, 3-{5-[1-(Dimethylamino)isoquinolin-3-yl]-1-oxo-2,3-dihydro-1H-isoindol-2-yl}piperidine-2,6-dione] |
| 0.006 | 0.025 | O=C1CCC(N2Cc3cc(-c4nccc5ccccc45)ccc3C2=O)C(=O)N1 (stereo not shown) [Example 66, 3-[5-(isoquinolin-1-yl)-1-oxo-2,3-dihydro-1H-isoindol-2-yl]piperidine-2,6-dione] |
| 0.37 | 13.7 | Nc1c(-c2ccc3c(c2)CN(C2CCC(=O)NC2=O)C3=O)ncc2ccccc12 (stereo not shown) [Example 2, 3-(5-(4-Aminoisoquinolin-3-yl)-1-oxoisoindolin-2-yl)piperidine-2,6-dione] |
| 0.037 | > 20 | O=C1CCC(N2Cc3cc(-c4ccc5ncccc5n4)ccc3C2=O)C(=O)N1 (stereo not shown) [Example 21, 3-[5-(1,5-naphthyridin-2-yl)-1-oxo-2,3-dihydro-1H-isoindol-2-yl]piperidine-2,6-dione] |
| 0.1 | 0.16 | O=C1CCC(N2Cc3cc(-c4cc5c(cn4)CCCC5)ccc3C2=O)C(=O)N1 (stereo not shown) [Example 115, 3-(1-oxo-5-(5,6,7,8-tetrahydroisoquinolin-3-yl)isoindolin-2-yl)piperidine-2,6-dione] |
| 0.75 | > 20 | O=C1CCC(N2Cc3cc(-c4cc(-c5ccccc5)c5ccccc5n4)ccc3C2=O)C(=O)N1 (stereo not shown) [Example 13, 3-[1-oxo-5-(4-phenylquinolin-2-yl)-2,3-dihydro-1H-isoindol-2-yl]piperidine-2,6-dione] |

Reference: patent US12570671B2 (BRISTOL-MYERS SQUIBB COMPANY, priority 2020, dated 2026)
